Measurements taken from patent publication US20200316090A1, “TARGETED THERAPEUTICS” (MADRIGAL PHARMACEUTICALS, INC., priority 2012, published 2020).
Like-named read-outs stand apart in the source and are kept apart here.

Assays:
[1] = Artificial membrane permeability assay (PAMPA)
Procedure: In order to test the ability SDC-TRAP molecules of the invention to enter cells, an artificial membrane permeability assay (“PAMPA”) was used. […] LC/MS was used in conjunction with PAMPA assays to determine the ability of the SDC-TRAP molecules of the invention to permeate cells.
Pre-coated PAMPA plates were warmed to room temperature for at least 30 minutes prior to adding assay components.
Stock solutions were prepared with the SDC-TRAP molecules to be tested. In order to make a working solution, either 50 μL of 100 μM Stock in DMSO+950 μL of PBS or 50 μL of 200 stock was added to 96 deep well plate, resulting in a 5 μM final concentration or a 10 μM final concentration, respectively. […] 200 μL of PBS was added into the corresponding wells of an acceptor PAMPA plates.
The acceptor plate was lowered onto the donor plate and allowed to incubate for five hours. After five hours, a 50 μL aliquot was removed from each well of each plate and added into a new 96 deep-well plate.
100 μL of methanol containing an internal standard was added to each aliquot and analyzed by LC/MS. The internal standard was 150 ng/ml SDC-TRAP-0002.
In order to calculate the permeability for each SDC-TRAP molecule and the control molecules, the following formula was used:
Permeability (in Unit of Cm/s):
[formula] • C0=initial compound concentration in donor well (mM) • CD (t)=compound concentration in donor well at time t. (mM) • CA (t)=compound concentration in acceptor well at time t. (mM) • VD=donor well volume=0.3 mL • VA=acceptor well volume=0.2 mL • A=filter area=0.3 cm^2 • t=incubation time=18000 s (5 h)
For the data presented in the table below, peak area was used in place of concentration in the formula above.

[2] = Tissue distribution of SDC-TRAP and degradation products in tumor-bearing mice (plasma, tumor, heart); format: in vivo, Female SCID Mouse (H1975)
Procedure: A 150 ng/mL solution of SDC-TRAP-0002 in methanol was prepared using an internal spiking solution (500 μg/mL SDC-TRAP-0002 in DMSO). Using the 10 mM stock solutions of the SDC-TRAP molecule and its Hsp90i binding moiety and effector moiety in DMSO, spiking solutions were prepared at 0.025, 0.05, 0.1, 0.5, 1, 5, 10, 50, 100, 250, and 500 μM in DMSO. 5 μL of each spiking solution was added to a 96-deep well plate.
Quality control standards were prepared from 5 μL of 0.1, 1, and 10 μM calibration standard spiking solution added in triplicate into 96-deep well plate and adding 50 μL of matrix (plasma or homogenized tumor).
To prepare test samples, test plasma was diluted as needed using blank plasma. Tumor samples were pulverized in liquid nitrogen, weighed, and homogenized in PBS at 5× volume to sample weight. 50 μL of unknown plasma or homogenized tumor sample was mixed with 5 μL of DMSO. The samples were extracted by precipitating calibration standards, QC standards, and unknown samples with 200 μL of internal standard solution. The samples were mixed by vortex at room temperature for approximately 1.5 minutes, then centrifuge at 2-8° C. 150 μL of supernatant was collected and 25 μL of water added. Samples were mixed and analyzed by LC-MS/MS.
Samples of plasma, heart and tumor were excised from a euthanized mouse, homogenized in PBS at 5 times tissue weight and diluted in 5 μL DMSO/50 μL sample. Prior to analysis, 55 μL samples and calibration standards were precipitated in 200 μL methanol in 96-well plates. Samples were mixed on a vortex mixer for 1.5 minutes at 1500 rpm at room temperature, then centrifuged at 4400 rpm for 10 minutes at 8° C. 150 μL of each supernatant was transferred to a well of a new 96-well plate, and 25 μL of water was added and mixed with the sample. […] For the analysis of samples from female SCID mice, a gradient of solvent A (water/0.1% formic acid) and B (acetonitrile/0.1% formic acid) was used as in Table A below.

[3] = female, SCID, mouse, in vivo, read-out: Tumor/Plasma Ratio
[4] = Permeability (10^−6 cm/s), 5 h incubation, peak area used in place of concentration, first table
[5] = Permeability (cm/s), 5 h incubation, peak area used in place of concentration, first table
[6] = female, SCID, mouse, in vivo, read-out: Plasma Conc.
[7] = tissue distribution of SDC-TRAP-0056, 6 h
[8] = tissue distribution of SDC-TRAP-0056, 12 h
[9] = tissue distribution of SDC-TRAP-0056, 24 h

Compound: CCNC(=O)c1nnc(-c2cc(C(C)C)c(O)cc2O)n1-c1ccc2c(c1)CN(Cc1cc(OC)c(OC(=O)Nc3cccc4c3CN(C3CCC(=O)NC3=O)C4=O)c(OC)c1)C2 (stereo not shown) [SDC-TRAP-0196, 4-((5-(3-(2,4-dihydroxy-5-isopropylphenyl)-5-(ethylcarbamoyl)-4H-1,2,4-triazol-4-yl)isoindolin-2-yl)methyl)-2,6-dimethoxyphenyl (2-(2,6-dioxopiperidin-3-yl)-1-oxoisoindolin-4-yl)carbamate]
- Mass Retention (%) ([1]; 5 h incubation, first table): 22.3%

Compound: CC(C)c1cc(-c2nnc(O)n2-c2ccc(CN3CCN(C(=O)Oc4ccc(COC(=O)Nc5cccc6c5CN(C5CCC(=O)NC5=O)C6=O)cc4)CC3)c(F)c2)c(O)cc1O (stereo not shown) [SDC-TRAP-0171, 4-((((2-(2,6-dioxopiperidin-3-yl)-1-oxoisoindolin-4-yl)carbamoyl)oxy)methyl)phenyl-4-(4-(3-(2,4-dihydroxy-5-isopropylphenyl)-5-hydroxy-4H-1,2,4-triazol-4-yl)-2-fluorobenzyl)piperazine-1-carboxylate]
- Kp at 6 h [2, 3]: 407

Compound: CCc1c2c(nc3ccc(OC(=O)N4CCC[C@H]4C(=O)N4CCC(CCn5ccc6cc(-n7c(O)nnc7-c7cc(C(C)C)c(O)cc7O)ccc65)CC4)cc13)-c1cc3c(c(=O)n1C2)COC(=O)[C@]3(O)CC [SDC-TRAP-0210]
- Papp at 5 h [1]: 0.00899 ×10⁻⁶ cm/s
- Mass Retention (%) ([1]; 5 h incubation, first table): 34.8%
- Mass Retention (%) ([1]; same protocol, second table): 72.2%
- Permeability (10^−6 cm/s) ([1]; same protocol, second table): 0.00899 10^−6 cm/s

Compound: CCc1c2c(nc3ccc(O)cc13)-c1cc3c(c(=O)n1C2)COC(=O)[C@@]3(CC)OC(=O)N1CCC(CCn2ccc3cc(-n4c(O)nnc4-c4cc(C(C)C)c(O)cc4O)ccc32)CC1 [SDC-TRAP-0064, (S)-4,11-diethyl-9-hydroxy-3,14-dioxo-3,4,12,14-tetrahydro-1H-pyrano[3′,4′:6,7]indolizino[1,2-b]quinolin-4-yl 4-(2-(5-(3-(2,4-dihydroxy-5-isopropylphenyl)-5-hydroxy-4H-1,2,4-triazol-4-yl)-1H-indol-1-yl)ethyl)piperidine-1-carboxylate]
- Mass Retention (%) ([1]; same protocol, second table): 48.4%

Compound: CCNC(=O)c1nnc(-c2cc(C(C)C)c(O)cc2O)n1-c1ccc2c(ccn2CCC2CCN(C(=O)Oc3ccc4nc5c(c(CC)c4c3)Cn3c-5cc4c(c3=O)COC(=O)[C@]4(O)CC)CC2)c1 [SDC-TRAP-0205, (S)-4,11-diethyl-4-hydroxy-3,14-dioxo-3,4,12,14-tetrahydro-1H-pyrano[3′,4′:6,7]indolizino[1,2-b]quinolin-9-yl 4-(2-(5-(3-(2,4-dihydroxy-5-isopropylphenyl)-5-(ethylcarbamoyl)-4H-1,2,4-triazol-4-yl)-1H-indol-1-yl)ethyl)piperidine-1-carboxylate]
- Mass Retention (%) ([1]; same protocol, second table): 10.9%

Compound: CC(C)c1cc(-c2nnc(O)n2-c2ccc(CN3CCN(C(=O)CCn4cc(F)c(=O)[nH]c4=O)CC3)cc2)c(O)cc1O [SDC-TRAP-0049, 1-(3-(4-(4-(3-(2,4-dihydroxy-5-isopropylphenyl)-5-hydroxy-4H-1,2,4-triazol-4-yl)benzyl)piperazin-1-yl)-3-oxopropyl)-5-fluoropyrimidine-2,4 (1H,3H)-dione]
- Mass Retention (%) ([1]; 5 h incubation, first table): 14.1%
- Papp at 5 h [1, 4]: 0.0124 ×10⁻⁶ cm/s
- Papp at 5 h [1, 5]: 0.0124 ×10⁻⁶ cm/s

Compound: CCNC(=O)c1nnc(-c2cc(C(C)C)c(O)cc2O)n1-c1ccc(CN2CCC(C(=O)N3CCN(c4cc(C)c(OC(=O)Nc5cccc6c5CN(C5CCC(=O)NC5=O)C6=O)c(C)c4)CC3)CC2)cc1 (stereo not shown) [SDC-TRAP-0195, 4-(4-(1-(4-(3-(2,4-dihydroxy-5-isopropylphenyl)-5-(ethylcarbamoyl)-4H-1,2,4-triazol-4-yl)benzyl)piperidine-4-carbonyl)piperazin-1-yl)-2,6-dimethylphenyl (2-(2,6-dioxopiperidin-3-yl)-1-oxoisoindolin-4-yl)carbamate]
- Mass Retention (%) ([1]; 5 h incubation, first table): 27.1%

Compound: COc1cccc2c1C(=O)c1c(O)c3c(c(O)c1C2=O)C[C@@](O)(C(=O)CO)C[C@@H]3O[C@H]1C[C@H](N)[C@H](O)[C@H](C)O1 [Doxorubicin, doxorubicin, reference compound]
- Mass Retention (%) ([1]; 5 h incubation, first table): 21.0%
- Papp at 5 h [1, 4]: 0.0033 ×10⁻⁶ cm/s
- Papp at 5 h [1, 5]: 0.0033 ×10⁻⁶ cm/s

Compound: CC(C)c1cc(-c2nnc(C(=O)NCCCCCS(N)(=O)=O)n2-c2ccc(CN3CCOCC3)cc2)c(O)cc1O [SDC-TRAP-0232, 5-(2,4-dihydroxy-5-isopropylphenyl)-4-(4-(morpholinomethyl)phenyl)-N-(5-sulfamoylpentyl)-4H-1,2,4-triazole-3-carboxamide]
- Mass Retention (%) ([1]; 5 h incubation, first table): 21.0%
- Papp at 5 h [1, 4]: 0.00689 ×10⁻⁶ cm/s
- Papp at 5 h [1, 5]: 0.00689 ×10⁻⁶ cm/s

Compound: CC(C)c1cc(-c2nnc(O)n2-c2ccc3c(ccn3CCOCCNC(=O)CCn3cc(F)c(=O)[nH]c3=O)c2)c(O)cc1O [SDC-TRAP-0048, N-(2-(2-(5-(3-(2,4-dihydroxy-5-isopropylphenyl)-5-hydroxy-4H-1,2,4-triazol-4-yl)-1H-indol-1-yl)ethoxy)ethyl)-3-(5-fluoro-2,4-dioxo-3,4-dihydropyrimidin-1 (2H)-yl)propanamide]
- Mass Retention (%) ([1]; 5 h incubation, first table): 10.8%
- Papp at 5 h [1, 4]: 0.0283 ×10⁻⁶ cm/s
- Papp at 5 h [1, 5]: 0.0283 ×10⁻⁶ cm/s

Compound: CC(=O)O[C@@]12CO[C@@H]1C[C@H](O)[C@@]1(C)C(=O)[C@H](O)C3=C(C)[C@@H](OC(=O)[C@H](O)[C@@H](NC(=O)OC(C)(C)C)c4ccccc4)C[C@@](O)([C@@H](OC(=O)c4ccccc4)[C@H]21)C3(C)C [Docetaxel, docetaxel, reference compound]
- Mass Retention (%) ([1]; 5 h incubation, first table): 17.6%
- Papp at 5 h [1, 4]: 0.05 ×10⁻⁶ cm/s
- Papp at 5 h [1, 5]: 0.05 ×10⁻⁶ cm/s

Compound: CCNC(=O)c1nnc(-c2cc(C(C)C)c(O)cc2O)n1-c1ccc(C(=O)N2CCN(c3cc(C)c(OC(=O)Nc4cccc5c4CN(C4CCC(=O)NC4=O)C5=O)c(C)c3)CC2)cc1 (stereo not shown) [SDC-TRAP-0178, 4-(4-(4-(3-(2,4-dihydroxy-5-isopropylphenyl)-5-(ethylcarbamoyl)-4H-1,2,4-triazol-4-yl)benzoyl)piperazin-1-yl)-2,6-dimethylphenyl (2-(2,6-dioxopiperidin-3-yl)-1-oxoisoindolin-4-yl)carbamate]
- concentration at 1 h [2, 6]: 217000 nM
- concentration at 6 h [2, 6]: 4510 nM
- concentration at 24 h [2, 6]: 28 nM
- concentration at 48 h [2, 6]: 241 nM
- Kp at 1 h [2, 3]: 1.59
- Kp at 6 h [2, 3]: 100
- Kp at 24 h [2, 3]: 100
- Kp at […] [2, 3]: 0.0179

Compound: CCNC(=O)c1nnc(-c2cc(C(C)C)c(O)cc2O)n1-c1ccc(OC2CCN(c3cnc(C(=O)N[C@H]4C[C@H](O[C@H]5C[C@](O)(C(=O)CO)Cc6c(O)c7c(c(O)c65)C(=O)c5c(OC)cccc5C7=O)O[C@@H](C)[C@H]4O)cn3)CC2)cc1 [SDC-TRAP-0200, 5-(4-(4-(3-(2,4-dihydroxy-5-isopropylphenyl)-5-(ethylcarbamoyl)-4H-1,2,4-triazol-4-yl)phenoxy)piperidin-1-yl)-N-((2S,3S,4S,6R)-3-hydroxy-2-methyl-6-(((1S,3S)-3,5,12-trihydroxy-3-(2-hydroxyacetyl)-10-methoxy-6,11-dioxo-1,2,3,4,6,11-hexahydrotetracen-1-yl)oxy)tetrahydro-2H-pyran-4-yl)pyrazine-2-carboxamide]
- Mass Retention (%) ([1]; same protocol, second table): 10.6%

Compound: Cn1c(=O)c2c(ncn2C)n(C)c1=O [Caffeine]
- Mass Retention (%) ([1]; 5 h incubation, first table): 20.8%
- Papp at 5 h [1, 4]: 11.7 ×10⁻⁶ cm/s
- Papp at 5 h ([1]; Permeability (10^−6 cm/s), same protocol, second table): 14.3 ×10⁻⁶ cm/s
- Papp at 5 h [1, 5]: 11.7 ×10⁻⁶ cm/s
- Papp at 5 h ([1]; Permeability (cm/s), same protocol, second table): 14.3 ×10⁻⁶ cm/s
- Mass Retention (%) ([1]; same protocol, second table): −0.11%

Compound: CCNC(=O)c1nnc(-c2cc(C(C)C)c(O)cc2O)n1-c1ccc2c(ccn2CCC2CCN(C(=O)O[C@]3(CC)C(=O)OCc4c3cc3n(c4=O)Cc4c-3nc3ccc(O)cc3c4CC)CC2)c1 [SDC-TRAP-0208, (S)-4,11-diethyl-9-hydroxy-3,14-dioxo-3,4,12,14-tetrahydro-1H-pyrano[3′,4′:6,7]indolizino[1,2-b]quinolin-4-yl 4-(2-(5-(3-(2,4-dihydroxy-5-isopropylphenyl)-5-(ethylcarbamoyl)-4H-1,2,4-triazol-4-yl)-1H-indol-1-yl)ethyl)piperidine-1-carboxylate]
- Mass Retention (%) ([1]; same protocol, second table): 25.0%

Compound: CCc1c2c(nc3ccc(O)cc13)-c1cc3c(c(=O)n1C2)COC(=O)C3(CC)OC(=O)CN1CCN(c2ccc(-n3c(O)nnc3-c3cc(C(C)C)c(O)cc3O)cc2)CC1 (stereo not shown) [SDC-TRAP-0056, 4,11-diethyl-9-hydroxy-3,14-dioxo-3,4,12,14-tetrahydro-1H-pyrano[3′,4′:6,7]indolizino[1,2-b]quinolin-4-yl 2-(4-(4-(3-(2,4-dihydroxy-5-isopropylphenyl)-5-hydroxy-4H-1,2,4-triazol-4-yl)phenyl)piperazin-1-yl)acetate]
- Kp ([2]; female, SCID, mouse, in vivo, tissue distribution of SDC-TRAP-0056, 6 h, read-out: Tumor/Plasma Ratio): 0.844
- Kp ([2]; female, SCID, mouse, in vivo, tissue distribution of SDC-TRAP-0056, 12 h, read-out: Tumor/Plasma Ratio): 40.3
- Kp ([2]; female, SCID, mouse, in vivo, tissue distribution of SDC-TRAP-0056, 24 h, read-out: Tumor/Plasma Ratio): 40.3
- Kp ([2]; female, SCID, mouse, in vivo, tissue distribution of SDC-TRAP-0056, […], read-out: Tumor/Plasma Ratio): 0.0193
- Plasma Conc. [2, 7]: 5880 nM
- Tumor Conc. [2, 7]: 4.97 nmol/g of tissue
- Plasma Conc. [2, 8]: 54.2 nM
- Tumor Conc. [2, 8]: 2.19 nmol/g of tissue
- Plasma Conc. [2, 9]: 54.2 nM
- Tumor Conc. [2, 9]: 2.19 nmol/g of tissue
- Tumor Conc. ([2]; tissue distribution of SDC-TRAP-0056, 48 h): 0.188 nmol/g of tissue

Compound: COc1ccc(-c2cnoc2-c2cc(OC)c(OC)c(OC)c2)cc1OC(=O)N1CCN(Cc2ccc(-n3c(O)nnc3-c3cc(C(C)C)c(O)cc3O)cc2)CC1 [SDC-TRAP-0098, 2-Methoxy-5-(5-(3,4,5-trimethoxyphenyl)isoxazol-4-yl)phenyl-4-(4-(3-(2,4-dihydroxy-5-isopropylphenyl)-5-hydroxy-4H-1,2,4-triazol-4-yl)benzyl) piperazine-1-carboxylate]
- Tumor Conc. ([2]; tissue distribution of SDC-TRAP-0098, 1 h): 0.250 nmol/g of tissue
- Tumor Conc. ([2]; tissue distribution of SDC-TRAP-0098, 6 h): 0.0122 nmol/g of tissue
- Tumor Conc. ([2]; tissue distribution of SDC-TRAP-0098, 24 h): BQL
- Tumor Conc. ([2]; tissue distribution of SDC-TRAP-0098, 48 h): BQL
